# Measurements reported in BindingDB's records for doi:10.1021/acs.jmedchem.0c01153 (Tokyo Medical and Dental University (Tmdu), 2021).
# Legend:
# [1] = Inhibition of HIV1 KP-5mp1 gp120 interaction with CD4 human TZM-bl cells assessed as decrease in viral entry by MTT assay
# [2] = Inhibition of HIV1 KP-5mvcR gp120 interaction with CD4 in human TZM-bl cells assessed as decrease in viral entry by MTT assay
Structure (SMILES),IC50 [1] [nM],IC50 [2] [nM]
N=C(N)NCCCCCCCCCCC(=O)NCCN1CCC(NC(=O)C(=O)Nc2ccc(Cl)cc2)CC12CCCCC2 (stereo not given),43000,720
N=C(N)NCCCCC(=O)NCCN1CCC(NC(=O)C(=O)Nc2ccc(Cl)cc2)CC12CCCCC2 (stereo not given),2100,120
N=C(N)NCCCC[C@H](NC(=N)N)C(=O)NCCN1CCC(NC(=O)C(=O)Nc2ccc(Cl)cc2)CC12CCCCC2 (stereo not given in full),3900,290
N=C(N)NCC(=O)NCCCC[C@H](NC(=N)N)C(=O)NCCN1CCC(NC(=O)C(=O)Nc2ccc(Cl)cc2)CC12CCCCC2 (stereo not given in full),4400,230
N=C(N)NCCCCC(=O)NCCCC[C@H](NC(=N)N)C(=O)NCCN1CCC(NC(=O)C(=O)Nc2ccc(Cl)cc2)CC12CCCCC2 (stereo not given in full),13000,330
N=C(N)NCCCCCCCC(=O)NCCCC[C@H](NC(=N)N)C(=O)NCCN1CCC(NC(=O)C(=O)Nc2ccc(Cl)cc2)CC12CCCCC2 (stereo not given in full),2900,420
N=C(N)NCCCCCCCCCCC(=O)NCCCC[C@H](NC(=N)N)C(=O)NCCN1CCC(NC(=O)C(=O)Nc2ccc(Cl)cc2)CC12CCCCC2 (stereo not given in full),4800,880
CCCCCCCCCCCCCCCCNC(=O)CCC(=O)OC(CCCNS(=O)(=O)c1ccc([N+](=O)[O-])cc1)C(=O)NCCN1CCC(NC(=O)C(=O)Nc2ccc(Cl)cc2)CC12CCCCC2 (stereo not given),–,3400
COCCOCCOCCOCCOCCNC(=O)CCC(=O)OC(CCCNS(=O)(=O)c1ccc([N+](=O)[O-])cc1)C(=O)NCCN1CCC(NC(=O)C(=O)Nc2ccc(Cl)cc2)CC12CCCCC2 (stereo not given),–,570
CCCCCCCCCCCCCCCCNC(=O)CCC(=O)OC(CCCN)C(=O)NCCN1CCC(NC(=O)C(=O)Nc2ccc(Cl)cc2)CC12CCCCC2 (stereo not given),–,250
COCCOCCOCCOCCOCCNC(=O)CCC(=O)OC(CCCN)C(=O)NCCN1CCC(NC(=O)C(=O)Nc2ccc(Cl)cc2)CC12CCCCC2 (stereo not given),–,46
CCCCCCCCCCCCCCCCNC(=O)CCC(=O)OC(CCCNC(=N)N)C(=O)NCCN1CCC(NC(=O)C(=O)Nc2ccc(Cl)cc2)CC12CCCCC2 (stereo not given),–,1200
COCCOCCOCCOCCOCCNC(=O)CCC(=O)OC(CCCNC(=N)N)C(=O)NCCN1CCC(NC(=O)C(=O)Nc2ccc(Cl)cc2)CC12CCCCC2 (stereo not given),–,17
COCCOCCOCCOCCOCCNC(=O)CCC(=O)N[C@@H](CCCNC(=N)N)C(=O)NCCN1CCC(NC(=O)C(=O)Nc2ccc(Cl)cc2)CC12CCCCC2 (stereo not given in full),–,130
COCCOCCOCCOCCOCCOCCOCCOCCOCCOCCOCCOCCNC(=O)CCC(=O)N[C@@H](CCCNC(=N)N)C(=O)NCCN1CCC(NC(=O)C(=O)Nc2ccc(Cl)cc2)CC12CCCCC2 (stereo not given in full),–,< 100
COCCOCCOCCOCCOCCOCCOCCOCCOCCOCCOCCOCCOCCOCCOCCOCCOCCOCCOCCOCCOCCOCCOCCOCCNC(=O)CCC(=O)N[C@@H](CCCNC(=N)N)C(=O)NCCN1CCC(NC(=O)C(=O)Nc2ccc(Cl)cc2)CC12CCCCC2 (stereo not given in full),–,< 100
N=C(N)NCCCCCCCC(=O)NCCN1CCC(NC(=O)C(=O)Nc2ccc(Cl)cc2)CC12CCCCC2 (stereo not given),> 100000,–
"CC1(C)CC(NC(=O)C(=O)Nc2ccc(Cl)cc2)CC(C)(C)N1 [N-(4-chlorophenyl)-N'-(2,2,6,6-tetramethylpiperidin-4-yl)-oxalamide]",6900,–
